Consider 25 compounds from article PMC10935252, “Synthesis and Biological Evaluation of New Dihydrofuro[3,2-b]piperidine Derivatives as Potent α-Glucosidase Inhibitors” (Molecules, 2024).

This assay addresses α-glucosidase from yeast. As to the kind of experiment: α-Glucosidase inhibition assay. Type of assay: biochemical, Baker’s yeast. The following applies: for IC50: substrate maltose 0.5 mM, pH 6.8, 37 °C, mean ± SD of three independent experiments, read-out: IC50 against α-glucosidase from yeast. The method, then: α-Glucosidase activity was assayed by the method reported, with minor modifications. […] The reaction mixture contained 150 μL of enzyme solution, 150 μL of inhibitor, and 150 μL of substrate (maltose). The substrate and α-glucosidase (Baker’s yeast) were purchased from Sigma-Aldrich Chemical (St. Louis, MO, USA). Both the inhibitor and the substrate were first dissolved in dimethylsulfoxide (DMSO) and then diluted with Na2HPO4/NaH2PO4 buffer for a final concentration of DMSO of 5%. The enzymatic reaction was started after incubation of the enzyme (0.04 U/mL) for 10 min in the presence of the inhibitor (five different concentrations) by the addition of the substrate (0.5 mM). The mixture was incubated at 37 °C for 60 min, and the reaction was quenched in boiling water for 10 min. The supernatant was taken to determine the content of glucose by means of the glucose oxidase method using a commercial glucose kit (Sichuan Mike Biotechnology Co., Ltd., Chengdu, China). The absorption at 505 nm was measured immediately and taken as the relative rate for the hydrolysis of the substrate. The blank control (the distilled water instead of sample and enzyme solution in the process) and the negative control (distilled water instead of sample solution in the process) were also prepared. Acarbose was used as the positive control. To calculate the inhibition rate (%), the following formula was used: (controlnegative − sample)/(controlnegative − controlblank) × 100%. The entire experiment was carried out in triplicate.

Take `C[C@]1(O)C[C@@H]2[C@@H](O1)[C@H](O)[C@H](O)CN2Cc1ccc(O)c(Cl)c1` [Compound 17, (2R, 3aR, 6R, 7R, 7aR)-2,6,7-trihydroxy-2-methyl-4-(3-chloro-4-hydroxylbenzyl)-3a,7a-Dihydrofuro[3,2-b]piperidine]: the IC50 was 4.9 ± 0.2 µM.
Still for that read-out and setting: the same measure for `CCOc1cc(CN2C[C@H](O)[C@H](O)[C@H]3O[C@@](C)(O)C[C@H]32)ccc1O` [Compound 34, (2R, 3aR, 6S, 7S, 7aS)-2,6,7-trihydroxy-2-methyl-4-(4-hydroxyl-3-ethyoxylbenzyl)-3a,7a-Dihydrofuro[3,2-b]piperidine]: > 20 µM.
As to `C[C@]1(O)C[C@@H]2[C@H](O1)[C@@H](O)[C@@H](O)CN2Cc1c(Cl)cc(O)cc1Cl` [Compound 32, (2R, 3aR, 6S, 7S, 7aS)-2,6,7-trihydroxy-2-methyl-4-(2,6-dichloro-4-hydroxylbenzyl)-3a,7a-Dihydrofuro[3,2-b]piperidine], the IC50 worked out at 0.07 ± 0.01 µM. Moreover, under “ratio of IC50 values against α-glucosidase from yeast”, the “times stronger activity than the positive control acarbose” value stood at 30 times.
On to `C[C@]1(O)C[C@@H]2[C@@H](O1)[C@H](O)[C@H](O)CN2Cc1ccc(O)cc1` [Compound 14, (2R, 3aR, 6R, 7R, 7aR)-2,6,7-trihydroxy-2-methyl-4-(4-hydroxylbenzyl)-3a,7a-Dihydrofuro[3,2-b]piperidine], for which the IC50 was determined as 10 ± 0.7 µM.
For `C[C@]1(O)C[C@@H]2[C@@H](O1)[C@H](O)[C@H](O)CN2Cc1ccc(O)c(F)c1` [Compound 19, (2R, 3aR, 6R, 7R, 7aR)-2,6,7-trihydroxy-2-methyl-4-(3-fluoro-4-hydroxylbenzyl)-3a,7a-Dihydrofuro[3,2-b]piperidine], the IC50 was determined as 5.4 ± 0.3 µM.
Still for that read-out and setting: for `C[C@]1(O)C[C@@H]2[C@@H](O1)[C@H](O)[C@H](O)CN2Cc1ccc(O)cc1Cl` [Compound 20, (2R, 3aR, 6R, 7R, 7aR)-2,6,7-trihydroxy-2-methyl-4-(2-chloro-4-hydroxylbenzyl)-3a,7a-Dihydrofuro[3,2-b]piperidine] the value was 4.4 ± 0.3 µM.
Same read-out and setting: the same measure for `C[C@]1(O)C[C@@H]2[C@H](O1)[C@@H](O)[C@@H](O)CN2Cc1ccc(O)c(F)c1` [Compound 30, (2R, 3aR, 6S, 7S, 7aS)-2,6,7-trihydroxy-2-methyl-4-(3-fluoro-4-hydroxylbenzyl)-3a,7a-Dihydrofuro[3,2-b]piperidine]: 2.6 ± 0.3 µM; for `C[C@]1(O)C[C@@H]2[C@@H](O1)[C@H](O)[C@H](O)CN2Cc1cc(Br)c(O)c(Br)c1` [Compound 24, (2R, 3aR, 6R, 7R, 7aR)-2,6,7-trihydroxy-2-methyl-4-(3,5-dibromo-4-hydroxyl-benzyl)-3a,7a-Dihydrofuro[3,2-b]piperidine]: 1.9 ± 0.2 µM; for `C[C@]1(O)C[C@@H]2[C@H](O1)[C@@H](O)[C@@H](O)CN2Cc1cccc(O)c1` [Compound 27, (2R, 3aR, 6S, 7S, 7aS)-2,6,7-trihydroxy-2-methyl-4-(3-hydroxylbenzyl)-3a,7a-di-hydrofuro[3,2-b]piperidine]: 3.7 ± 0.1 µM.
The same measure, in the same setting: the same measure for `C[C@]1(O)C[C@@H]2[C@H](O1)[C@@H](O)[C@@H](O)CN2Cc1ccc(O)c(Cl)c1` [Compound 28, (2R, 3aR, 6S, 7S, 7aS)-2,6,7-trihydroxy-2-methyl-4-(3-chloro-4-hydroxylbenzyl)-3a,7a-Dihydrofuro[3,2-b]piperidine]: 0.5 ± 0.1 µM.
Consider `C[C@H]1O[C@H](O[C@H]2[C@H](O)[C@@H](O)[C@@H](O[C@H]3[C@H](O)[C@@H](O)C(O)O[C@@H]3CO)O[C@@H]2CO)[C@H](O)[C@@H](O)[C@@H]1N[C@H]1C=C(CO)[C@@H](O)[C@H](O)[C@H]1O` (some centres unmarked) [Acarbose, reference compound], for which the IC50 turned out to be 2 ± 0.2 µM.
Still for that read-out and setting: the same measure for `CCOc1cc(CN2C[C@@H](O)[C@@H](O)[C@@H]3O[C@@](C)(O)C[C@H]32)ccc1O` [Compound 23, (2R, 3aR, 6R, 7R, 7aR)-2,6,7-trihydroxy-2-methyl-4-(4-hydroxyl-3-ethyoxylbenzyl)-3a,7a-Dihydrofuro[3,2-b]piperidine]: 9 ± 0.6 µM; for `COc1cc(CN2C[C@@H](O)[C@@H](O)[C@@H]3O[C@@](C)(O)C[C@H]32)ccc1O` [Compound 22, (2R, 3aR, 6R, 7R, 7aR)-2,6,7-trihydroxy-2-methyl-4-(4-hydroxyl-methoxylbenzyl)-3a,7a-Dihydrofuro[3,2-b]piperidine]: 10.5 ± 0.8 µM; for `COc1cc(CN2C[C@H](O)[C@H](O)[C@H]3O[C@@](C)(O)C[C@H]32)ccc1O` [Compound 33, (2R, 3aR, 6S, 7S, 7aS)-2,6,7-trihydroxy-2-methyl-4-(4-hydroxyl-methoxylbenzyl)-3a,7a-Dihydrofuro[3,2-b]piperidine]: > 20 µM.
For `C[C@]1(O)C[C@@H]2[C@@H](O1)[C@H](O)[C@H](O)CN2Cc1c(Cl)cc(O)cc1Cl` [Compound 21, (2R, 3aR, 6R, 7R, 7aR)-2,6,7-trihydroxy-2-methyl-4-(2,6-dichloro-4-hydroxylbenzyl)-3a,7a-Dihydrofuro[3,2-b]piperidine], the IC50 worked out at 0.91 ± 0.1 µM.
Regarding `CC(=O)C[C@H]1NC[C@@H](O)[C@@H](O)[C@@H]1O` [Compound 6], the IC50 is > 20 µM.
Same read-out and setting: the same measure for `C[C@]1(O)C[C@@H]2[C@@H](O1)[C@H](O)[C@H](O)CN2Cc1ccccc1O` [Compound 15, (2R, 3aR, 6R, 7R, 7aR)-2,6,7-trihydroxy-2-methyl-4-(2-hydroxylbenzyl)-3a,7a-Dihydrofuro[3,2-b]piperidine]: > 20 µM.
For the compound `C[C@]1(O)C[C@@H]2[C@@H](O1)[C@H](O)[C@H](O)CN2Cc1ccc(O)c(Br)c1` [Compound 18, (2R, 3aR, 6R, 7R, 7aR)-2,6,7-trihydroxy-2-methyl-4-(3-bromo-4-hydroxylbenzyl)-3a,7a-Dihydrofuro[3,2-b]piperidine], the IC50 worked out at 5.5 ± 0.4 µM.
Same read-out and setting: the same measure for `C[C@]1(O)C[C@@H]2[C@H](O1)[C@@H](O)[C@@H](O)CN2Cc1ccc(O)cc1Cl` [Compound 31, (2R, 3aR, 6S, 7S, 7aS)-2,6,7-trihydroxy-2-methyl-4-(2-chloro-4-hydroxylbenzyl)-3a,7a-Dihydrofuro[3,2-b]piperidine]: 1.8 ± 0.2 µM; for `C[C@]1(O)C[C@@H]2[C@@H](O1)[C@H](O)[C@H](O)CN2Cc1ccccc1Cl` [Compound 13, (2R, 3aR, 6R, 7R, 7aR)-2,6,7-trihydroxy-2-methyl-4-(2-chlorobenzyl)-3a,7a-Dihydrofuro[3,2-b]piperidine]: 13 ± 0.5 µM; for `C[C@]1(O)C[C@@H]2[C@H](O1)[C@@H](O)[C@@H](O)CN2Cc1ccc(O)c(Br)c1` [Compound 29, (2R, 3aR, 6S, 7S, 7aS)-2,6,7-trihydroxy-2-methyl-4-(3-bromo-4-hydroxylbenzyl)-3a,7a-Dihydrofuro[3,2-b]piperidine]: 1.2 ± 0.1 µM.
Still for that read-out and setting: the same measure for `C[C@]1(O)C[C@@H]2[C@H](O1)[C@@H](O)[C@@H](O)CN2Cc1ccccc1O` [Compound 26, (2R, 3aR, 6S, 7S, 7aS)-2,6,7-trihydroxy-2-methyl-4-(2-hydroxylbenzyl)-3a,7a-di-hydrofuro[3,2-b]piperidine]: > 20 µM; for `CC(=O)C[C@H]1NC[C@H](O)[C@H](O)[C@H]1O` [Compound 12]: > 20 µM; for `C[C@]1(O)C[C@@H]2[C@H](O1)[C@@H](O)[C@@H](O)CN2Cc1ccc(O)cc1` [Compound 25, (2R, 3aR, 6S, 7S, 7aS)-2,6,7-trihydroxy-2-methyl-4-(4-hydroxylbenzyl)-3a,7a-di-hydrofuro[3,2-b]piperidine]: 8.3 ± 0.4 µM.
Same read-out and setting: for `C[C@]1(O)C[C@@H]2[C@@H](O1)[C@H](O)[C@H](O)CN2Cc1cccc(O)c1` [Compound 16, (2R, 3aR, 6R, 7R, 7aR)-2,6,7-trihydroxy-2-methyl-4-(3-hydroxylbenzyl)-3a,7a-Dihydrofuro[3,2-b]piperidine] the value was > 20 µM.

What is called IC50 is the concentration at which inhibition is half-maximal.
